Data from PubChem BioAssay AID330 (DTP/NCI, 2004).
Toxic doses and inconclusive results are not listed.

System: P388 leukemia ip, CD2F1 mice, survival T/C
Assay: NCI In Vivo Anticancer Drug Screen. Data for tumor model P388 Leukemia (intraperitoneal) in CD2F1 (CDF1) mice
Details: endpoint: median survival time, higher = longer survival
Outline: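 Mice carrying the transplanted tumor received test compound or vehicle. Survival was recorded in each group, and the value is the treated-group measurement divided by that of the vehicle-treated control group.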

[1] = dose: 50.0 mg/kg/injection, schedule: Q01DX005 (ip), vehicle: Klucel (hydroxypropylcellulose) (HPC)
[2] = dose: 100.0 mg/kg/injection, schedule: Q01DX005 (ip), vehicle: Klucel (hydroxypropylcellulose) (HPC)
[3] = dose: 50.0 mg/kg/injection, schedule: Q01DX005 (ip), vehicle: saline with Tween-80
[4] = dose: 100.0 mg/kg/injection, schedule: Q01DX005 (ip), vehicle: saline with Tween-80
[5] = dose: 200.0 mg/kg/injection, schedule: Q01DX005 (ip), vehicle: saline with Tween-80
[6] = dose: 100.0 mg/kg/injection, schedule: Q04DX002 (ip), vehicle: saline with Tween-80
[7] = dose: 200.0 mg/kg/injection, schedule: Q04DX002 (ip), vehicle: saline with Tween-80
[8] = dose: 400.0 mg/kg/injection, schedule: Q04DX002 (ip), vehicle: saline with Tween-80
[9] = dose: 60.0 mg/kg/injection, schedule: Q01DX005 (ip), vehicle: saline with Tween-80
[10] = dose: 120.0 mg/kg/injection, schedule: Q01DX005 (ip), vehicle: saline with Tween-80
[11] = dose: 240.0 mg/kg/injection, schedule: Q01DX005 (ip), vehicle: saline with Tween-80
[12] = dose: 50.0 mg/kg/injection, schedule: Q01DX005 (ip), vehicle: saline
[13] = dose: 6.25 mg/kg/injection, schedule: Q01DX005 (ip), vehicle: saline with Tween-80
[14] = dose: 12.5 mg/kg/injection, schedule: Q01DX005 (ip), vehicle: saline with Tween-80
[15] = dose: 100.0 mg/kg/injection, schedule: Q01DX001 (ip), vehicle: Klucel (hydroxypropylcellulose) (HPC)
[16] = dose: 200.0 mg/kg/injection, schedule: Q01DX001 (ip), vehicle: Klucel (hydroxypropylcellulose) (HPC)
[17] = dose: 60.0 mg/kg/injection, schedule: Q01DX005 (ip), vehicle: Klucel (hydroxypropylcellulose) (HPC)
[18] = dose: 120.0 mg/kg/injection, schedule: Q01DX005 (ip), vehicle: Klucel (hydroxypropylcellulose) (HPC)
[19] = dose: 240.0 mg/kg/injection, schedule: Q01DX005 (ip), vehicle: Klucel (hydroxypropylcellulose) (HPC)
[20] = dose: 50.0 mg/kg/injection, schedule: Q01DX009 (ip), vehicle: saline with Tween-80
[21] = dose: 100.0 mg/kg/injection, schedule: Q01DX009 (ip), vehicle: saline with Tween-80
[22] = dose: 200.0 mg/kg/injection, schedule: Q01DX009 (ip), vehicle: saline with Tween-80
[23] = dose: 25.0 mg/kg/injection, schedule: Q01DX009 (ip), vehicle: saline with Tween-80
[24] = dose: 100.0 mg/kg/injection, schedule: Q04DX002 (ip), vehicle: Klucel (hydroxypropylcellulose) (HPC)
[25] = dose: 200.0 mg/kg/injection, schedule: Q04DX002 (ip), vehicle: Klucel (hydroxypropylcellulose) (HPC)
[26] = dose: 400.0 mg/kg/injection, schedule: Q04DX002 (ip), vehicle: Klucel (hydroxypropylcellulose) (HPC)

Cc1[nH]c(=O)cc2c1[nH]c1ccccc12
T/C (dose: 12.5 mg/kg/injection, schedule: Q01DX005 (ip), vehicle: Klucel (hydroxypropylcellulose) (HPC)): 96 % of control
T/C [1]: 100 % of control
T/C [2]: 98 % of control

O=C1C=C(Nc2ncccn2)c2ccccc2C1=O
T/C (dose: 6.25 mg/kg/injection, schedule: Q01DX005 (ip), vehicle: Klucel + Tween-80): 115 % of control
T/C (dose: 12.5 mg/kg/injection, schedule: Q01DX005 (ip), vehicle: Klucel + Tween-80): 98 % of control
T/C (dose: 25.0 mg/kg/injection, schedule: Q01DX005 (ip), vehicle: Klucel + Tween-80): 104 % of control

CCCCCCN(CCCCCC)C(C)C(=O)c1ccc2cc(Br)c3ccccc3c2c1 (configuration not stated)
T/C [3]: 91 % of control
T/C [4]: 94 % of control
T/C [5]: 94 % of control

CC(C)(C)N=NNc1ccc(C#N)cc1
T/C [6]: 87 % of control
T/C [7]: 88 % of control
T/C [8]: 88 % of control

N#CC(C(=O)C(=O)C(C#N)c1nc2ccccc2s1)c1nc2ccccc2s1 (configuration not stated)
T/C [9]: 92 % of control
T/C [10]: 101 % of control
T/C [11]: 103 % of control

N#Cc1cc2ccccc2nc1SN
T/C [12]: 100 % of control
T/C (dose: 100.0 mg/kg/injection, schedule: Q01DX005 (ip), vehicle: saline): 99 % of control
T/C (dose: 200.0 mg/kg/injection, schedule: Q01DX005 (ip), vehicle: saline): 98 % of control

Cc1ccc(C(=O)Nc2ccc(S(=O)(=O)O)c3cc(S(=O)(=O)O)cc(S(=O)(=O)O)c23)cc1NC(=O)c1cccc(NC(=O)Nc2cccc(C(=O)Nc3cc(C(=O)Nc4ccc(S(=O)(=O)O)c5cc(S(=O)(=O)O)cc(S(=O)(=O)O)c45)ccc3C)c2)c1
T/C (dose: 25.0 mg/kg/injection, schedule: Q01DX005 (ip), vehicle: saline): 106 % of control
T/C [12]: 95 % of control

C=CCC(C(C)=O)C(C)=NCCN=C(C)C(CC=C)C(C)=O.[Cu] (configuration not stated)
T/C [13]: 110 % of control
T/C [14]: 96 % of control

CCOc1ccc(C(CC(=O)O)CC(=O)N(CCCl)CCCl)cc1 (configuration not stated)
T/C (dose: 100.0 mg/kg/injection, schedule: Q04DX003 (ip), vehicle: suspension in saline): 101 % of control
T/C (dose: 200.0 mg/kg/injection, schedule: Q04DX003 (ip), vehicle: suspension in saline): 102 % of control
T/C (dose: 400.0 mg/kg/injection, schedule: Q04DX003 (ip), vehicle: suspension in saline): 105 % of control

CN(CCCc1nc2ccccc2[nH]1)N=O
T/C (dose: 100.0 mg/kg/injection, schedule: Q04DX003 (ip), vehicle: Klucel (hydroxypropylcellulose) (HPC)): 100 % of control
T/C (dose: 200.0 mg/kg/injection, schedule: Q04DX003 (ip), vehicle: Klucel (hydroxypropylcellulose) (HPC)): 101 % of control
T/C (dose: 400.0 mg/kg/injection, schedule: Q04DX003 (ip), vehicle: Klucel (hydroxypropylcellulose) (HPC)): 100 % of control

O=C1Nc2ccccc2NC(=O)C(=C(c2ccccc2)c2ccccc2)C1=C(c1ccccc1)c1ccccc1
T/C [9]: 90 % of control
T/C [10]: 89 % of control
T/C [11]: 89 % of control

O=C(O)CCCC1CCCCC1.[Mn]
T/C [3]: 116 % of control
T/C [4]: 108 % of control
T/C [5]: 99 % of control

CCCCCCn1[nH]nc(C(=O)OC)c1=O (tested in a mixture with another compound)
T/C [1]: 94 % of control
T/C [2]: 87 % of control
T/C (dose: 200.0 mg/kg/injection, schedule: Q01DX005 (ip), vehicle: Klucel (hydroxypropylcellulose) (HPC)): 92 % of control

CCOc1ccc(N=NC2C(=O)N(c3cccc(Cl)c3Cl)C(=S)N(c3ccc(OC)cc3)C2O)cc1 (configuration not stated)
T/C [15]: 100 % of control
T/C [16]: 96 % of control
T/C (dose: 400.0 mg/kg/injection, schedule: Q01DX001 (ip), vehicle: Klucel (hydroxypropylcellulose) (HPC)): 96 % of control

CCOc1cc2c(cc1Cc1cc(OC)c(OC)c(OC)c1)OCO2
T/C [17]: 91 % of control
T/C [18]: 98 % of control
T/C [19]: 86 % of control

COc1ccc(C(CCO)c2cc3c(cc2OC)OCO3)cc1 (configuration not stated)
T/C (dose: 50.0 mg/kg/injection, schedule: Q01DX005 (ip), vehicle: distilled water + Tween-80): 101 % of control
T/C (dose: 100.0 mg/kg/injection, schedule: Q01DX005 (ip), vehicle: distilled water + Tween-80): 101 % of control
T/C (dose: 200.0 mg/kg/injection, schedule: Q01DX005 (ip), vehicle: distilled water + Tween-80): 98 % of control

Cc1cc2c(=O)cc(-c3ccc([N+](=O)[O-])cc3)oc2c(C#N)c1C
T/C [17]: 92 % of control
T/C [18]: 94 % of control
T/C [19]: 87 % of control

C1=CC(Cc2ccccc2)NC1 (configuration not stated)
T/C (dose: 100.0 mg/kg/injection, schedule: Q01DX001 (ip), vehicle: distilled water + alcohol): 100 % of control
T/C (dose: 200.0 mg/kg/injection, schedule: Q01DX001 (ip), vehicle: distilled water + alcohol): 100 % of control

CC1=NN(C(=O)c2ccncc2)C(=O)C1N=Nc1ccccc1C (configuration not stated)
T/C [20]: 95 % of control
T/C [21]: 94 % of control
T/C [22]: 94 % of control

CCCCn1c(O)c(/C=C2/C=Nc3ccccc32)sc1=O
T/C [20]: 95 % of control
T/C [21]: 95 % of control
T/C [22]: 97 % of control

c1ccc(C2=NCN3CC23c2ccccc2)cc1 (configuration not stated)
T/C (dose: 12.5 mg/kg/injection, schedule: Q01DX009 (ip), vehicle: saline with Tween-80): 98 % of control
T/C [23]: 98 % of control
T/C [20]: 99 % of control
T/C [21]: 95 % of control

C=CC(C)(C)C(O)C=C(C)C (configuration not stated)
T/C [6]: 99 % of control
T/C [7]: 100 % of control
T/C [8]: 101 % of control

COc1ccc(C2=C(Cl)C(=O)N(c3ccc(OC)cc3OC)C(=O)C2(Cl)Cl)cc1
T/C [24]: 98 % of control
T/C [25]: 101 % of control
T/C [26]: 117 % of control

O=S1(=O)Cc2c3c(c4c(c2C1)CS(=O)(=O)C4)CS(=O)(=O)C3
T/C (dose: 50.0 mg/kg/injection, schedule: Q04DX002 (ip), vehicle: Klucel (hydroxypropylcellulose) (HPC)): 94 % of control
T/C [24]: 96 % of control
T/C [25]: 98 % of control

CC(=O)Oc1c(C)c(OC(C)=O)c2[nH]c(Cl)c(C=O)c2c1OC(C)=O
T/C [15]: 108 % of control
T/C [16]: 102 % of control

COc1cc2c[n+]3ccc4ccccc4c3c(N)c2cc1OC
T/C (dose: 50.0 mg/kg/injection, schedule: Q04DX003 (ip), vehicle: distilled water + Tween-80): 97 % of control
T/C (dose: 100.0 mg/kg/injection, schedule: Q04DX003 (ip), vehicle: distilled water + Tween-80): 106 % of control

OC(CCCCOc1ccccc1)(c1ccccc1)c1ccccc1
T/C [9]: 100 % of control
T/C [10]: 101 % of control
T/C [11]: 101 % of control

COCC1(C)CC2CCCCC2CC1(C)O (configuration not stated)
T/C [3]: 93 % of control
T/C [4]: 95 % of control
T/C [5]: 86 % of control

Oc1cc2c(cc1C(c1ccc(F)cc1)N1CCCC1)OCO2 (configuration not stated)
T/C [17]: 109 % of control
T/C [18]: 111 % of control
T/C [19]: 111 % of control

CCOC(=O)C1=C(Nc2cccc3c(NC4=C(C(=O)OCC)C(=O)CO4)cccc23)OCC1=O
T/C [9]: 109 % of control
T/C [10]: 99 % of control
T/C [11]: 98 % of control

O=C1NC2C3CC(c4ccccc43)C12 (configuration not stated)
T/C [9]: 105 % of control
T/C [10]: 109 % of control
T/C [11]: 108 % of control

CCC(c1ccc(OC)cc1)C(CC)c1ccc(O)c(CN2CCN(C)CC2)c1 (configuration not stated)
T/C [23]: 123 % of control
T/C [20]: 119 % of control
T/C [21]: 119 % of control

C=CC12CC(=O)N3CCc4ccccc4C3(C1)C2
T/C [24]: 110 % of control
T/C [25]: 100 % of control
T/C [26]: 97 % of control

CC1CN=C(c2cccc(NC(=O)NCCCCNC(=O)Nc3cccc(C4=NCC(C)N4)c3)c2)N1 (configuration not stated)
T/C [13]: 100 % of control
T/C [14]: 104 % of control
